Series [1] concerns the target T1, GAL4-PPAR γ chimeric nuclear receptor (human PPAR γ ligand binding domain) (Homo sapiens, UniProt P37231).
T1 construct: expressed in transfected cells; host or cells: HEK293EBNA cells, transient transfection with SuperFect
T1 sequence (P37231 174-475 isoform P37231-2): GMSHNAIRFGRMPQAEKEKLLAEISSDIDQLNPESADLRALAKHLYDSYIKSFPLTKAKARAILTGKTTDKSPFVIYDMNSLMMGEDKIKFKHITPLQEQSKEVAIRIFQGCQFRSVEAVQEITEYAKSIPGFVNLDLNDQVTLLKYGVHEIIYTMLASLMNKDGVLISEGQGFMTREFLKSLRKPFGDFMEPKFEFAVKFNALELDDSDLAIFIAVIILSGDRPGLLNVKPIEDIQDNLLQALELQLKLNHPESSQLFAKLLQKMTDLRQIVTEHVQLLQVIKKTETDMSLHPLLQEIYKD
In words: PPAR γ transactivation assay by transient gene transfer (GAL4-PPAR γ chimeric receptor, luciferase reporter, HEK293EBNA cells). It counts as cell-based. The settings on record: concentration showing 50% of efficacy (maximum activity rate relative to pioglitazone = 100%), 24 hr. As for the experimental part: The agonist activity of the test compound to PPAR γ was determined by a transactivation assay method using a chimeric nuclear receptor of a DNA binding region of a yeast transcription factor GAL4 and a PPAR γ ligand binding region. Specifically, the PPAR γ agonist activity of the test compound was evaluated by the following method based on the method of Lehmann et al. (J Biol. Chem., 1995, vol. 270, page 12953).
HEK293EBNA cells cultured in Dulbecco's Modified Eagle medium (Invitrogen) containing 10 v/v % fetal bovine serum (Invitrogen) were used. 30 mL of the above-mentioned cells (density: 1×10^5 cells/mL) were inoculated in a […] (Iwaki Glass), and cultured overnight. Using SuperFect Transfection Reagent (QIAGEN), a plasmid expressing a GAL4-PPAR γ chimeric nuclear receptor fusing 174-475 amino acids, which are human PPAR γ ligand binding domain, and 1-147 amino acids, which are GAL4 DNA binding domain, and a reporter plasmid expressing a GAL4 responsive luciferase were transiently introduced into the cells at a proportion of 4:1. After 5 hr from transfection, the cells were detached from the culture dish, and the detached cells (density: 2×10^4 cells/mL) were inoculated by 100 μL in each well of a 96 well white plate (SUMITOMO BAKELITE), and cultured overnight. The medium was removed, the test compound diluted in various concentrations with serum-free Dulbecco's Modified Eagle medium was added by 100 μL, and the mixture was reacted under a 5% carbon dioxide gas stream (5% CO2) at 37° C. for 24 hr. On the other hand, as a positive control, 10 μmol/L of pioglitazone (100 μL) was added, and the mixture was reacted under a 5% carbon dioxide gas stream (5% CO2) at 37° C. for 24 hr. As a substrate of luciferase, 100 μL of Steady-Glo (Promega) was added to each well and the mixture was thoroughly stirred. Immediately thereafter, the chemical luminescence due to luciferase was measured using TopCount NTX (Packard).
The agonist activity (activity rate (%)) of the test compound to PPAR γ was calculated according to the following formula, as a relative activity when the agonist activity on addition of pioglitazone ([…]) was 100%.

A short description of series [2]: Metabolic stability evaluation in human liver microsome. It counts as in vitro ADME. Particulars: liver microsomes, pH 7.4; human liver microsome 0.2 mg/mL protein, test compound 1 μmol/L, β-NADPH, 37° C., 30 min; average of two samples; read-out: hCLint (converted). As to the method:
Human liver microsome (pool of 50 donors) was purchased from XenoTech. A reaction mixture containing phosphate buffer (100 mmol/L, pH 7.4), ethylenediamine tetraacetic acid (0.1 mmol/L), magnesium chloride (6 mmol/L), human liver microsome (0.2 mg/mL protein) and test compound (1 μmol/L) was prepared. The reaction mixture was preincubated at 37° C. for 5 min, β-NADPH (1 mmol/L) was added and the mixture was incubated at 37° C. for 30 min. The protein was removed with acetonitrile from the sample after the reaction and the sample was measured by LC-MS/MS. The ratio of the organic solvent in the reaction mixture was set to about 0.5%, and the reaction was performed in 2 samples.
The elimination rate constant (ke) was calculated from the linear regression of the logarithm plot of the residual ratio of the test compound and at 30 min after the reaction, and the liver inherent clearance (Cint) was calculated by the following formula.
[formula] ke: elimination rate constant (1/h) a: concentration (mg/mL) of liver microsome in the reaction mixture b: liver microsome amount per liver unit weight (32.3 mg/g liver) c: liver weight per unit body weight (25.7 g liver/kg body weight) Each test compound was tested in two samples, and the average thereof was calculated.
A general note: Liver microsomes are vesicles of endoplasmic reticulum, rich in cytochrome P450 enzymes.

With `COCc1nc2ccccc2n1Cc1ccc2c(c1)COc1cc(F)ccc1/C2=C(\C)c1noc(=O)[nH]1` [Compound 1b, (E)-3-[1-(3-fluoro-8-{[2-(methoxymethyl)-1H-benzo[d]imidazol-1-yl]methyl}dibenzo[b,e]oxepin-11(6H)-ylidene)ethyl]-1,2,4-oxadiazol-5(4H)-one], in series [1], the EC50 (commonly the concentration needed to bring the measured effect to its halfway point) turned out to be 11.7 nM. For the same compound, the CLint scaled at 1 μmol/L in series [2] is 31.7 mL/min/kg.
For `C/C(=C1/c2ccc(Cc3c(C)nc4cc(C5CC5)ccn34)cc2COc2cc(F)ccc21)c1noc(=O)[nH]1` [Compound 14g, (E)-3-(1-{8-[(7-cyclopropyl-2-methylimidazo[1,2-a]pyridin-3-yl)methyl]-3-fluorodibenzo[b,e]oxepin-11(6H)-ylidene}ethyl)-1,2,4-oxadiazol-5(4H)-one], in that order: 130 nM and 28.3 mL/min/kg.
With `CCCc1nc2ccccc2n1Cc1ccc2c(c1)COc1c(ccc(F)c1F)/C2=C(\C)c1noc(=O)[nH]1` [Compound 7a, (E)-3-(1-{3,4-difluoro-8-[(2-propyl-1H-benzo[d]imidazol-1-yl)methyl]dibenzo[b,e]oxepin-11(6H)-ylidene}ethyl)-1,2,4-oxadiazol-5(4H)-one], a half-maximal response in series [1] (EC50) required 27.7 nM. In addition, the CLint scaled at 1 μmol/L in series [2] was 48.3 mL/min/kg.
For `[2H]C([2H])([2H])Oc1cccn2c(Cc3ccc4c(c3)COc3cc(F)ccc3/C4=C(\C)c3noc(=O)[nH]3)c(C3CC3)nc12` [Compound 9h, (E)-3-[1-(8-{[2-cyclopropyl-8-(methoxy-d3)-imidazo[1,2-a]pyridin-3-yl]methyl}-3-fluorodibenzo[b,e]oxepin-11(6H)-ylidene)ethyl]-1,2,4-oxadiazol-5(4H)-one], in that order: 11.9 nM and 25 mL/min/kg.
The like results for `COCc1nc2cc(Cl)ccn2c1Cc1ccc2c(c1)COc1cc(F)ccc1/C2=C(\C)c1noc(=O)[nH]1` [Compound 10e, (E)-3-{1-(8-{[7-chloro-2-(methoxymethyl)imidazo[1,2-a]pyridin-3-yl]methyl}-3-fluorodibenzo[b,e]oxepin-11(6H)-ylidene)ethyl}-1,2,4-oxadiazol-5(4H)-one] were, in that order, 5.3 nM and 40 mL/min/kg.
For `C/C(=C1/c2ccc(Cc3c(C4CC4)nc4c(F)cccn34)cc2COc2cc(F)ccc21)c1noc(=O)[nH]1` [Compound 9i, (E)-3-(1-{8-[(2-cyclopropyl-8-fluoroimidazo[1,2-a]pyridin-3-yl)methyl]-3-fluorodibenzo[b,e]oxepin-11(6H)-ylidene}ethyl)-1,2,4-oxadiazol-5(4H)-one], in that order: 13.9 nM and 71.7 mL/min/kg.
In series [1], `C#Cc1ccn2c(Cc3ccc4c(c3)COc3cc(F)ccc3/C4=C(\C)c3noc(=O)[nH]3)c(C)nc2c1` [Compound 14h, (E)-3-(1-{8-[(7-ethynyl-2-methylimidazo[1,2-a]pyridin-3-yl)methyl]-3-fluorodibenzo[b,e]oxepin-11(6H)-ylidene}ethyl)-1,2,4-oxadiazol-5(4H)-one] displayed an EC50 of 304 nM. For the same compound, the CLint scaled at 1 μmol/L in series [2] was 36.7 mL/min/kg.
`C/C(=C1/c2ccc(Cc3c(C#N)nc4cc(F)ccn34)cc2COc2cc(F)ccc21)c1noc(=O)[nH]1` [Compound 14i, (E)-3-(1-{8-[(2-cyano-7-fluoroimidazo[1,2-a]pyridin-3-yl)methyl]-3-fluorodibenzo[b,e]oxepin-11(6H)-ylidene}ethyl)-1,2,4-oxadiazol-5(4H)-one] displayed an EC50 in series [1] of 239 nM. Moreover, in series [2], the CLint scaled at 1 μmol/L was 127 mL/min/kg.
Regarding `C/C(=C1/c2ccc(Cc3c(C)nc4cc(C(F)(F)F)ccn34)cc2COc2cc(F)ccc21)c1noc(=O)[nH]1` [Compound 11b, (E)-3-[1-(3-fluoro-8-{[2-methyl-7-(trifluoromethyl)imidazo[1,2-a]pyridin-3-yl]methyl}dibenzo[b,e]oxepin-11(6H)-ylidene)ethyl]-1,2,4-oxadiazol-5(4H)-one], the half-maximal effective concentration (EC50) in series [1] stood at 13.9 nM. Further, the CLint scaled at 1 μmol/L in series [2] is 35 mL/min/kg.
For `C/C(=C1/c2ccc(Cn3c(CN(C)C)nc4ccccc43)cc2COc2cc(F)ccc21)c1noc(=O)[nH]1` [Compound 4a, (E)-3-{1-[8-({2-[(dimethylamino)methyl]-1H-benzo[d]imidazol-1-yl}methyl)-3-fluorodibenzo[b,e]oxepin-11(6H)-ylidene]ethyl}-1,2,4-oxadiazol-5(4H)-one], in that order: 33.5 nM and 31.7 mL/min/kg.
The like results for `C/C(=C1/c2ccc(Cc3c(C4CCOC4)nc4cc(F)ccn34)cc2COc2cc(F)ccc21)c1noc(=O)[nH]1` (centres unmarked) [Compound 14j, (E)-3-(1-{8-[(7-fluoro-2-(tetrahydrofuran-3-yl)imidazo[1,2-a]pyridin-3-yl)methyl]-3-fluorodibenzo[b,e]oxepin-11(6H)-ylidene}ethyl)-1,2,4-oxadiazol-5(4H)-one] were, in that order, 83 nM and 11.3 mL/min/kg.
For `O=c1[nH]c(/C(=C2\c3ccc(Cc4c(C5CC5)nc5c(Cl)cccn45)cc3COc3cc(F)ccc32)C2CC2)no1` [Compound 12a, (E)-3-({8-[(8-chloro-2-cyclopropylimidazo[1,2-a]pyridin-3-yl)methyl]-3-fluorodibenzo[b,e]oxepin-11(6H)-ylidene}(cyclopropyl)methyl)-1,2,4-oxadiazol-5(4H)-one], in that order: 18.8 nM and 78.3 mL/min/kg.
Regarding `O=c1[nH]c(/C(F)=C2\c3ccc(Cc4c(C5CC5)nc5c(Cl)cccn45)cc3COc3cc(F)ccc32)no1` [Compound 8n, (Z)-3-({8-[(8-chloro-2-cyclopropylimidazo[1,2-a]pyridin-3-yl)methyl]-3-fluorodibenzo[b,e]oxepin-11(6H)-ylidene}fluoromethyl)-1,2,4-oxadiazol-5(4H)-one], the midpoint of the response in series [1], the EC50, lay at 54.5 nM. The CLint scaled at 1 μmol/L in series [2] was 18.3 mL/min/kg.
In series [1], `C/C(=C1/c2ccc(Cc3c(C4CC4)nc4cc(Cl)ccn34)cc2COc2cc(F)ccc21)c1noc(=O)[nH]1` [Compound 10a, (E)-3-(1-{8-[(7-chloro-2-cyclopropylimidazo[1,2-a]pyridin-3-yl)methyl]-3-fluorodibenzo[b,e]oxepin-11(6H)-ylidene}ethyl)-1,2,4-oxadiazol-5(4H)-one] showed an EC50 of 6.4 nM. Further, the CLint scaled at 1 μmol/L in series [2] is 102 mL/min/kg.
For `C/C(=C1/c2ccc(Cc3c(C4CC4)nc4cc(F)ccn34)cc2COc2cc(F)ccc21)c1noc(=O)[nH]1` [Compound 10c, (E)-3-(1-{8-[(2-cyclopropyl-7-fluoroimidazo[1,2-a]pyridin-3-yl)methyl]-3-fluorodibenzo[b,e]oxepin-11(6H)-ylidene}ethyl)-1,2,4-oxadiazol-5(4H)-one], in that order: 12.7 nM and 65 mL/min/kg.
In the case of `C/C(=C1/c2ccc(Cn3c(C4CCC4)nc4nc(F)ccc43)cc2COc2cc(F)ccc21)c1noc(=O)[nH]1` [Compound 3i, (E)-3-(1-{8-[(2-cyclobutyl-5-fluoro-1H-imidazo[4,5-b]pyridin-1-yl)methyl]-3-fluorodibenzo[b,e]oxepin-11(6H)-ylidene}ethyl)-1,2,4-oxadiazol-5(4H)-one], the half-maximal effective concentration (EC50) in series [1] is 8.5 nM. For the same compound, the CLint scaled at 1 μmol/L in series [2] was 21.7 mL/min/kg.

Source of the values: patent US8969345B2, “Dibenzooxepin derivative” (Kyowa Hakko Kirin Co., Ltd., priority 2011, dated 2015).
